Results from patent US5441983A, “Treatment of infection by enveloped virus with calix(N)arene compounds” (Genelabs Incorporated, priority 1992, dated 1995).
Converted amounts (≈) assume the structure as drawn.

What was measured:
HIV-RF-II = experiment: Inhibition of syncytia formation, HIV-RF-II; settings: for EC100: Human immunodeficiency virus 1, 18 h, read-out: HIV-RF-II ED100, complete inhibition of syncytia formation; for HIV-RF-II ED100: complete inhibition of syncytia formation
Experimental: (§13) Briefly, cells chronically infected with HTLV-IIIB or RF-II HIV strains were incubated in the presence of serial dilutions of the selected KY compound, then further cocultured with indicator cells. The extent of syncytia formation was scored under phase microscopy.
(§14) Representative calix(n)arene compounds from Table 2 were tested for inhibition of cytopathic effects in cells infected with one of two HTLV-III strains, HTLV-IIIB and RF-II strains, as described in Example 12, and in the subsection above.
(§15) Human CD4^+ indicator cells (VB) and chronically infected H9 cells were maintained in RPMI-1640 medium supplemented with 5% fetal calf serum, 100 Units of penicillin per ml and 100 μg of streptomycin per ml at 37° C. in a humidified incubator containing 7% CO2.
(§16) For the fusion assay, serial dilutions between 1:2 and 1:2^8 of a selected KY compound, 1 mg/ml in PBS were made in a 96 well round bottom plate. The diluted KY compound was transferred to a 96 well flat-bottom plate. To each well was added 25 μg chronically infected H9 cells (at 2×10^6, cells/ml), or cells chronically infected with RF-II strain HIV, followed by incubation at 37° C. for 45 minutes. To each well was then added 25 μl VB cells (about 5×10^4 cells), and the cells and virus isolates were cocultured for 18 hours in a humid 5% CO2 atmosphere.

HIV-HXB = experiment: Inhibition of syncytia formation, HIV-HXB (HTLV-IIIB); settings: for EC100: Human immunodeficiency virus 1, 18 h, read-out: HIV-HXB ED100, complete inhibition of syncytia formation; for HIV-HXB ED100: complete inhibition of syncytia formation
Experimental: as §13, §14, §15, §16

HSV-1 [1] = experiment: Plaque reduction assay, HSV-1, Vero cells; format: cell-based, HSV-1 (Kos-1); settings: plaque reduction, Vero cells; for IC50: Human alphaherpesvirus 1, Vero
Experimental: (§1) used in Table 3 were further tested for activity against HSV infection in
(§2) a plaque reduction assay, as detailed in Example 6. Here Vero cells, after
(§3) overnight incubation, were exposed to serial dilutions of KY compound,
(§4) from 0.625-10 μg/ml, and HSV-1 or HSV-2 virus for two hours. After
(§5) washing to remove drug and extracellular virus, the cells were further
(§6) incubated for 2 days, then stained and counted for plaque formation.
(§7) Percent inhibition was determined by dividing plaques produced by total
(§8) number of plaques in infected, untreated controls. From the concentration
(§9) effect curve of plaque inhibition (expressed as percent of control), the
(§10) concentration of compound required to produce 50% plaque reduction,
(§11) IC50, was determined. The IC50 values for infection by HSV-1 and
(§12) HSV-2 infection is given in the right-hand columns in Table 3. With

HSV-2 = experiment: Plaque reduction assay, HSV-2, Vero cells; format: cell-based, HSV-2 (333); settings: for IC50: Human alphaherpesvirus 2, Vero
Experimental: as §1, §2, §3, §4, §5, §6, §7, §8, §9, §10, §11, §12

HSV-1 [2] = experiment: Inactivation of purified HSV-1 by compound, plaque number after serial dilution; settings: 10 μg/ml, duplicate
Experimental: In a third study, purified HSV-1 virus suspensions were incubated with KY-1 or the sodium salt thereof, or a control solution for 1 hour, then serially diluted to drug concentrations between 10^1 to 10^-4 μg/ml as described in Example 16. The "X" symbol in the table indicates plaques too numerous to count.
Purified HSV-1 was suspended in RPMI-1640 medium (Gibco Laboratories) containing 2% FCS, penicillin and streptomycin. […] The suspensions were incubated for 1 hour at 37° C., then diluted serially at 10 fold dilutions to final drug concentrations of 10, 10^0, 10^-1, 10^-2, 10^-3 and 10^-4 μg/ml drug concentrations The serially diluted particles were then added to Vero cells for two hours, as in Example 6, and the cells examined for plaques 48 hours later.

SMILES	EC100 (HIV-RF-II)	EC100 (HIV-HXB)	other results
CCCCCC(=O)Oc1c2c(S(=O)(=O)O)cc3cc(S(=O)(=O)O)c(c(OC(=O)CCCCC)c13)Cc1c(S(=O)(=O)O)cc3cc(S(=O)(=O)O)c(c(OC(=O)CCCCC)c3c1OC(=O)CCCCC)Cc1c(S(=O)(=O)O)cc3cc(S(=O)(=O)O)c(c(OC(=O)CCCCC)c3c1OC(=O)CCCCC)Cc1c(S(=O)(=O)O)cc3cc(S(=O)(=O)O)c(c(OC(=O)CCCCC)c3c1OC(=O)CCCCC)C2 [KY-291]	32 µg/mL	16 µg/mL	
COc1c2c(S(=O)(=O)O)cc3cc(S(=O)(=O)O)c(c(OC)c13)C(C(=O)O)c1c(S(=O)(=O)O)cc3cc(S(=O)(=O)O)c(c(OC)c3c1OC)C(C(=O)O)c1c(S(=O)(=O)O)cc3cc(S(=O)(=O)O)c(c(OC)c3c1OC)C(C(=O)O)c1c(S(=O)(=O)O)cc3cc(S(=O)(=O)O)c(c(OC)c3c1OC)C2C(=O)O (centres unmarked) [KY-284]	32 µg/mL	16 µg/mL	
O=S(=O)(O)c1c2c(O)c3c(O)c(c(S(=O)(=O)O)c(O)c3c1O)C(c1ccccc1)c1c(S(=O)(=O)O)c(O)c3c(O)c(S(=O)(=O)O)c(c(O)c3c1O)C(c1ccccc1)c1c(S(=O)(=O)O)c(O)c3c(O)c(S(=O)(=O)O)c(c(O)c3c1O)C(c1ccccc1)c1c(S(=O)(=O)O)c(O)c3c(O)c(S(=O)(=O)O)c(c(O)c3c1O)C2c1ccccc1 (centres unmarked) [KY-85]		32 µg/mL	
CCCC(=O)Oc1c2c(S(=O)(=O)O)cc3cc(S(=O)(=O)O)c(c(OC(=O)CCC)c13)Cc1c(S(=O)(=O)O)cc3cc(S(=O)(=O)O)c(c(OC(=O)CCC)c3c1OC(=O)CCC)Cc1c(S(=O)(=O)O)cc3cc(S(=O)(=O)O)c(c(OC(=O)CCC)c3c1OC(=O)CCC)Cc1c(S(=O)(=O)O)cc3cc(S(=O)(=O)O)c(c(OC(=O)CCC)c3c1OC(=O)CCC)C2 [KY-288]			HIV-RF-II ED100 (HIV-RF-II): 16; HIV-HXB ED100 (HIV-HXB): 8
O=C(O)CCCCCCC(=O)Oc1c2c(S(=O)(=O)O)cc3cc(S(=O)(=O)O)c(c(OC(=O)CCCCCCC(=O)O)c13)Cc1c(S(=O)(=O)O)cc3cc(S(=O)(=O)O)c(c(OC(=O)CCCCCCC(=O)O)c3c1OC(=O)CCCCCCC(=O)O)Cc1c(S(=O)(=O)O)cc3cc(S(=O)(=O)O)c(c(OC(=O)CCCCCCC(=O)O)c3c1OC(=O)CCCCCCC(=O)O)Cc1c(S(=O)(=O)O)cc3cc(S(=O)(=O)O)c(c(OC(=O)CCCCCCC(=O)O)c3c1OC(=O)CCCCCCC(=O)O)C2 [KY-294]	16 µg/mL	16 µg/mL	
O=S(=O)(NO)c1cc2cc(S(=O)(=O)NO)c3c(O)c2c(O)c1Cc1c(S(=O)(=O)NO)cc2cc(S(=O)(=O)NO)c(c(O)c2c1O)Cc1c(S(=O)(=O)NO)cc2cc(S(=O)(=O)NO)c(c(O)c2c1O)Cc1c(S(=O)(=O)NO)cc2cc(S(=O)(=O)NO)c(c(O)c2c1O)C3 [KY-359]	63 µg/mL	32 µg/mL	IC50 (HSV-1 [1]): 5.75 µg/mL (≈ 3.97 µM); IC50 (HSV-2): 4.2 µg/mL (≈ 2.9 µM)
O=S(=O)(O)c1c2c(O)c3c(O)c(c(S(=O)(=O)O)c(Br)c3c1Br)C(C(Br)CBr)c1c(S(=O)(=O)O)c(Br)c3c(Br)c(S(=O)(=O)O)c(c(O)c3c1O)C(C(Br)CBr)c1c(S(=O)(=O)O)c(Br)c3c(Br)c(S(=O)(=O)O)c(c(O)c3c1O)C(C(Br)CBr)c1c(S(=O)(=O)O)c(Br)c3c(Br)c(S(=O)(=O)O)c(c(O)c3c1O)C2C(Br)CBr (centres unmarked) [KY-193]	500 µg/mL	63 µg/mL	
CC(=O)Oc1c2c(S(=O)(=O)O)cc3cc(S(=O)(=O)O)c(c(OC(C)=O)c13)C(C(=O)O)c1c(S(=O)(=O)O)cc3cc(S(=O)(=O)O)c(c(OC(C)=O)c3c1OC(C)=O)C(C(=O)O)c1c(S(=O)(=O)O)cc3cc(S(=O)(=O)O)c(c(OC(C)=O)c3c1OC(C)=O)C(C(=O)O)c1c(S(=O)(=O)O)cc3cc(S(=O)(=O)O)c(c(OC(C)=O)c3c1OC(C)=O)C2C(=O)O (centres unmarked) [KY-272]	250 µg/mL	63 µg/mL	
O=C(O)CCCCCOc1c2c(S(=O)(=O)O)cc3cc(S(=O)(=O)O)c(c(OCCCCCC(=O)O)c13)Cc1c(S(=O)(=O)O)cc3cc(S(=O)(=O)O)c(c(OCCCCCC(=O)O)c3c1OCCCCCC(=O)O)Cc1c(S(=O)(=O)O)cc3cc(S(=O)(=O)O)c(c(OCCCCCC(=O)O)c3c1OCCCCCC(=O)O)Cc1c(S(=O)(=O)O)cc3cc(S(=O)(=O)O)c(c(OCCCCCC(=O)O)c3c1OCCCCCC(=O)O)C2 [KY-307]	32 µg/mL	8 µg/mL	
Oc1c2c(S)cc3cc(S)c(c(O)c13)Cc1c(S)cc3cc(S)c(c(O)c3c1O)Cc1c(S)cc3cc(S)c(c(O)c3c1O)Cc1c(S)cc3cc(S)c(c(O)c3c1O)C2 [KY-171]	250 µg/mL	125 µg/mL	IC50 (HSV-1 [1]): 2.5 µg/mL (≈ 2.64 µM); IC50 (HSV-2): 3 µg/mL (≈ 3.17 µM)
O=S(=O)(O)c1cc2cc(S(=O)(=O)O)c3c(O)c2c(O)c1Cc1c(S(=O)(=O)O)cc2cc(S(=O)(=O)O)c(c(O)c2c1O)Cc1c(S(=O)(=O)O)cc2cc(S(=O)(=O)O)c(c(O)c2c1O)Cc1c(S(=O)(=O)O)cc2cc(S(=O)(=O)O)c(c(O)c2c1O)C3 [KY 217]			Plaque number, dilution 1 (HSV-1 [2]; 0.3 pfu/cell): 2,8; Plaque number, dilution 10^1 (HSV-1 [2]; 0.3 pfu/cell): 3,3; Plaque number, dilution 1 (HSV-1 [2]; 3 pfu/cell): X,X; Plaque number, dilution 10^1 (HSV-1 [2]; 3 pfu/cell): X,X; Plaque number, dilution 10^2 (HSV-1 [2]; 3 pfu/cell): 6,0; Plaque number, dilution 10^3 (HSV-1 [2]; 3 pfu/cell): 5,0
O=S(=O)(Nc1ccccc1)c1cc2cc(S(=O)(=O)Nc3ccccc3)c3c(O)c2c(O)c1Cc1c(S(=O)(=O)Nc2ccccc2)cc2cc(S(=O)(=O)Nc4ccccc4)c(c(O)c2c1O)Cc1c(S(=O)(=O)Nc2ccccc2)cc2cc(S(=O)(=O)Nc4ccccc4)c(c(O)c2c1O)Cc1c(S(=O)(=O)Nc2ccccc2)cc2cc(S(=O)(=O)Nc4ccccc4)c(c(O)c2c1O)C3 [KY-176]	250 µg/mL	125 µg/mL	
O=S(=O)(O)c1cc2c(O)c(c1)Cc1cc(S(=O)(=O)O)cc(c1O)Cc1cc(S(=O)(=O)O)cc(c1O)Cc1cc(S(=O)(=O)O)cc(c1O)Cc1cc(S(=O)(=O)O)cc(c1O)Cc1cc(S(=O)(=O)O)cc(c1O)C2 [Y-77]			IC50 (HSV-1 [1]): 8 µg/mL (≈ 7.16 µM); IC50 (HSV-2): 11 µg/mL (≈ 9.85 µM)
CCCCC(=O)Oc1c2c(S(=O)(=O)O)cc3cc(S(=O)(=O)O)c(c(OC(=O)CCCC)c13)Cc1c(S(=O)(=O)O)cc3cc(S(=O)(=O)O)c(c(OC(=O)CCCC)c3c1OC(=O)CCCC)Cc1c(S(=O)(=O)O)cc3cc(S(=O)(=O)O)c(c(OC(=O)CCCC)c3c1OC(=O)CCCC)Cc1c(S(=O)(=O)O)cc3cc(S(=O)(=O)O)c(c(OC(=O)CCCC)c3c1OC(=O)CCCC)C2 [KY-289]	32 µg/mL	16 µg/mL	
O=C(O)C1c2c(S(=O)(=O)O)cc3cc(S(=O)(=O)O)c(c(O)c3c2O)C(C(=O)O)c2c(S(=O)(=O)O)cc3cc(S(=O)(=O)O)c(c(O)c3c2O)C(C(=O)O)c2c(S(=O)(=O)O)cc3cc(S(=O)(=O)O)c(c(O)c3c2O)C(C(=O)O)c2c(S(=O)(=O)O)cc3cc(S(=O)(=O)O)c1c(O)c3c2O (centres unmarked) [Y-66]			IC50 (HSV-1 [1]): > 10 µg/mL; IC50 (HSV-2): > 10 µg/mL
CC(=O)Oc1c2c(S(=O)(=O)O)cc3cc(S(=O)(=O)O)c(c(OC(C)=O)c13)Cc1c(S(=O)(=O)O)cc3cc(S(=O)(=O)O)c(c(OC(C)=O)c3c1OC(C)=O)Cc1c(S(=O)(=O)O)cc3cc(S(=O)(=O)O)c(c(OC(C)=O)c3c1OC(C)=O)Cc1c(S(=O)(=O)O)cc3cc(S(=O)(=O)O)c(c(OC(C)=O)c3c1OC(C)=O)C2 [KY-270]	32 µg/mL	16 µg/mL	
CC=CC(=O)Oc1c2c(S(=O)(=O)O)cc3cc(S(=O)(=O)O)c(c(OC(=O)C=CC)c13)Cc1c(S(=O)(=O)O)cc3cc(S(=O)(=O)O)c(c(OC(=O)C=CC)c3c1OC(=O)C=CC)Cc1c(S(=O)(=O)O)cc3cc(S(=O)(=O)O)c(c(OC(=O)C=CC)c3c1OC(=O)C=CC)Cc1c(S(=O)(=O)O)cc3cc(S(=O)(=O)O)c(c(OC(=O)C=CC)c3c1OC(=O)C=CC)C2 [KY-293]	63 µg/mL	16 µg/mL	
CCC(=O)Oc1c2c(S(=O)(=O)O)cc3cc(S(=O)(=O)O)c(c(OC(=O)CC)c13)Cc1c(S(=O)(=O)O)cc3cc(S(=O)(=O)O)c(c(OC(=O)CC)c3c1OC(=O)CC)Cc1c(S(=O)(=O)O)cc3cc(S(=O)(=O)O)c(c(OC(=O)CC)c3c1OC(=O)CC)Cc1c(S(=O)(=O)O)cc3cc(S(=O)(=O)O)c(c(OC(=O)CC)c3c1OC(=O)CC)C2 [KY-276]	32 µg/mL	16 µg/mL	
COc1c2c(S(=O)(=O)O)cc3cc(S(=O)(=O)O)c(c(OC)c13)Cc1c(S(=O)(=O)O)cc3cc(S(=O)(=O)O)c(c(OC)c3c1OC)Cc1c(S(=O)(=O)O)cc3cc(S(=O)(=O)O)c(c(OC)c3c1OC)Cc1c(S(=O)(=O)O)cc3cc(S(=O)(=O)O)c(c(OC)c3c1OC)C2 [KY-280]			HSV-1 IC50 (HSV-1 [1]): 1.1 µg/mL; HIV-RF-II ED100 (HIV-RF-II): 32; HSV-2 IC50 (HSV-2): 1 µg/mL; HIV-HXB ED100 (HIV-HXB): 16
O=C(O)CNS(=O)(=O)c1cc2cc(S(=O)(=O)NCC(=O)O)c3c(O)c2c(O)c1Cc1c(S(=O)(=O)NCC(=O)O)cc2cc(S(=O)(=O)NCC(=O)O)c(c(O)c2c1O)Cc1c(S(=O)(=O)NCC(=O)O)cc2cc(S(=O)(=O)NCC(=O)O)c(c(O)c2c1O)Cc1c(S(=O)(=O)NCC(=O)O)cc2cc(S(=O)(=O)NCC(=O)O)c(c(O)c2c1O)C3 [KY-357]	63 µg/mL	32 µg/mL	
CCCC(=O)Oc1c2c(S(=O)(=O)O)cc3cc(S(=O)(=O)O)c(c(OC(=O)CCC)c13)Cc1c(S(=O)(=O)O)cc3cc(S(=O)(=O)O)c(c(OC(=O)CCC)c3c1OC(=O)CCC)Cc1c(S(=O)(=O)O)cc3cc(S(=O)(=O)O)c(c(OC(=O)CCC)c3c1OC(=O)CCC)Cc1c(S(=O)(=O)O)cc3cc(S(=O)(=O)O)c(c(OC(=O)CCC)c3c1OC(=O)CCC)C2 [KY-281]	32 µg/mL	16 µg/mL	
O=S(=O)(O)c1cc2c(O)c(c1)Cc1cc(S(=O)(=O)O)cc(c1O)Cc1cc(S(=O)(=O)O)cc(c1O)Cc1cc(S(=O)(=O)O)cc(c1O)C2 [Y-49]			IC50 (HSV-1 [1]): 5 µg/mL (≈ 6.71 µM); IC50 (HSV-2): 10 µg/mL (≈ 13.4 µM)
